Data reported in patent publication US6737383B1, “Herbicidal oxadiazolidines” (priority 1999, dated 2004).

Experiments:
bedstraw = experiment: Test B pre/postemergence bedstraw; type: in vivo, Galium aparine; conditions: Preemergence
In short: (§1)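 Test chemicals in a non-phytotoxic solvent mixture with surfactant were sprayed preemergence onto planted seeds and postemergence onto plants 2 to 18 cm tall (1- to 4-leaf stage). After twelve to sixteen days in a greenhouse, injury was visually rated against untreated controls from 0 (no effect) to 10 (complete control).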

blackgrass = experiment: Test B pre/postemergence blackgrass; type: in vivo, Alopecurus myosuroides
In short: as §1

surinam grass = experiment: Test B pre/postemergence surinam grass; type: in vivo, Brachiaria decumbens
In short: as §1

cocklebur = experiment: Test B pre/postemergence cocklebur; type: in vivo, Xanthium strumarium
In short: as §1

corn = experiment: Test B pre/postemergence corn; type: in vivo, Zea mays
In short: as §1

crabgrass = experiment: Test B pre/postemergence crabgrass; type: in vivo, Digitaria sanguinalis
In short: as §1

giant foxtail = experiment: Test B pre/postemergence giant foxtail; type: in vivo, Setaria faberii
In short: as §1

morningglory = experiment: Test B pre/postemergence morningglory; type: in vivo, Ipomoea hederacea
In short: as §1

pigweed = experiment: Test B pre/postemergence pigweed; type: in vivo, Amaranthus retroflexus
In short: as §1

rape = experiment: Test B pre/postemergence rape; type: in vivo, Brassica napus
In short: as §1

soybean = experiment: Test B pre/postemergence soybean; type: in vivo, Glycine max
In short: as §1

sugar beet = experiment: Test B pre/postemergence sugar beet; type: in vivo, Beta vulgaris
In short: as §1

velvetleaf = experiment: Test B pre/postemergence velvetleaf; type: in vivo, Abutilon theophrasti
In short: as §1

wheat = experiment: Test B pre/postemergence wheat; type: in vivo, Triticum aestivum
In short: as §1

wild oat = experiment: Test B pre/postemergence wild oat; type: in vivo, Avena fatua
In short: as §1

purple nutsedge = experiment: Test B pre/postemergence purple nutsedge; type: in vivo, Cyperus rotundus
In short: as §1

rice = experiment: Test B flood test rice; type: in vivo, Oryza sativa
In short: (§2)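 Read-out is a visual response score from 0 (no effect) to 10 (complete control), assigned by comparison with untreated controls. Treatment was applied at the 2-leaf stage, and plants stayed in the greenhouse for twelve to sixteen days before scoring.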

smallflower flatsedge = experiment: Test B flood test smallflower flatsedge; type: in vivo, Cyperus difformis
In short: as §2

duck salad = experiment: Test B flood test duck salad; type: in vivo, Heteranthera limosa
In short: as §2

bamyardgrass = experiment: Test B flood test barnyardgrass; type: in vivo, Echinochloa crus-galli
In short: as §2

[1] = Postemergence, Rate 125 g/ha, scale 0 to 10, 0 is no effect, 10 is complete control
[2] = Postemergence, Rate 250 g/ha, scale 0 to 10, 0 is no effect, 10 is complete control
[3] = Postemergence, Rate 500 g/ha, scale of 0 to 10 where 0 is no effect and 10 is complete control
[4] = Preemergence, Rate 62 g/ha, scale 0 to 10 (0 no effect, 10 complete control)
[5] = Preemergence, Rate 125 g/ha, scale of 0 to 10 where 0 is no effect and 10 is complete control
[6] = Preemergence, Rate 250 g/ha, scale of 0 to 10 where 0 is no effect and 10 is complete control
[7] = Preemergence, Rate 500 g/ha, scale 0 to 10, 0 is no effect, 10 is complete control
[8] = Rate 62 g/ha, Postemergence, scale of 0 to 10 where 0 is no effect and 10 is complete control
[9] = Preemergence, Rate 250 g/ha, scale 0 to 10, 0 is no effect, 10 is complete control
[10] = Rate 62 g/ha, flood test species, Pre-emergence, visual evaluation after twelve to sixteen days
[11] = Rate 125 g/ha, under heading Pre-emergence, flood test species, visual evaluation after twelve to sixteen days
[12] = Rate 250 g/ha, Pre-emergence (flood test species), scale 0 to 10, 0 is no effect, 10 is complete control
[13] = Rate 500 g/ha, Pre-emergence, flood test species, scale 0 to 10 (0 no effect, 10 complete control)

C=CC[Si](C)(C)Cn1c(=O)on(C(=O)N(c2ccc(Cl)cc2)C(C)C)c1=O [Compound 414]
Plant response rating, Bedstraw (bedstraw; Rate 62 g/ha, scale 0 to 10 (0 no effect, 10 complete control)): 0
Plant response rating, Bedstraw (bedstraw; Rate 125 g/ha, scale of 0 to 10 where 0 is no effect and 10 is complete control): 0
Bedstraw plant response rating (bedstraw; Rate 250 g/ha, scale of 0 to 10 where 0 is no effect and 10 is complete control): 0
Bedstraw plant response rating (bedstraw; Rate 500 g/ha, scale 0 to 10, 0 is no effect, 10 is complete control): 0
Plant response rating, Blackgrass (blackgrass; [1]): 2
Plant response rating, Blackgrass (blackgrass; [2]): 5
Blackgrass plant response rating (blackgrass; [3]): 7
Plant response rating, Blackgrass (blackgrass; [4]): 0
Plant response rating, Blackgrass (blackgrass; [5]): 0
Blackgrass plant response rating (blackgrass; [6]): 3
Blackgrass plant response rating (blackgrass; [7]): 10
Blackgrass plant response rating (blackgrass; [8]): 0
Plant response rating, B. signalgrass (surinam grass; [1]): 0
Plant response rating, B. signalgrass (surinam grass; [2]): 1
B. signalgrass plant response rating (surinam grass; [3]): 6
Plant response rating, B. signalgrass (surinam grass; [4]): 0
Plant response rating, B. signalgrass (surinam grass; [5]): 0
B. signalgrass plant response rating (surinam grass; [6]): 1
B. signalgrass plant response rating (surinam grass; Preemergence, Rate 500 g/ha, scale of 0 to 10 where 0 is no effect and 10 is complete control): 5
B. signalgrass plant response rating (surinam grass; [8]): 0
Plant response rating, Cocklebur (cocklebur; [1]): 0
Plant response rating, Cocklebur (cocklebur; [2]): 0
Cocklebur plant response rating (cocklebur; [3]): 0
Plant response rating, Cocklebur (cocklebur; [4]): 0
Plant response rating, Cocklebur (cocklebur; [5]): 0
Cocklebur plant response rating (cocklebur; [9]): 0
Cocklebur plant response rating (cocklebur; [7]): 0
Cocklebur plant response rating (cocklebur; [8]): 0
Plant response rating, Corn (corn; [1]): 0
Plant response rating, Corn (corn; [2]): 0
Corn plant response rating (corn; [3]): 0
Plant response rating, Corn (corn; [4]): 0
Plant response rating, Corn (corn; [5]): 0
Corn plant response rating (corn; [9]): 0
Corn plant response rating (corn; [7]): 0
Corn plant response rating (corn; [8]): 0
Plant response rating, Crabgrass (crabgrass; [1]): 3
Plant response rating, Crabgrass (crabgrass; [2]): 6
Crabgrass plant response rating (crabgrass; [3]): 9
Plant response rating, Crabgrass (crabgrass; [4]): 2
Plant response rating, Crabgrass (crabgrass; [5]): 7
Crabgrass plant response rating (crabgrass; [9]): 9
Crabgrass plant response rating (crabgrass; [7]): 10
Crabgrass plant response rating (crabgrass; [8]): 1
Plant response rating, Giant foxtail (giant foxtail; [2]): 6
Giant foxtail plant response rating (giant foxtail; [3]): 9
Plant response rating, Giant foxtail (giant foxtail; [4]): 2
Plant response rating, Giant foxtail (giant foxtail; [5]): 9
Giant foxtail plant response rating (giant foxtail; [9]): 10
Giant foxtail plant response rating (giant foxtail; [7]): 10
Giant foxtail plant response rating (giant foxtail; [8]): 3
Plant response rating, Morningglory (morningglory; [2]): 7
Morningglory plant response rating (morningglory; [3]): 8
Plant response rating, Morningglory (morningglory; [4]): 0
Plant response rating, Morningglory (morningglory; [5]): 0
Morningglory plant response rating (morningglory; [9]): 0
Morningglory plant response rating (morningglory; [7]): 0
Plant response rating, Redroot pigweed (pigweed; [2]): 0
Redroot pigweed plant response rating (pigweed; [3]): 0
Plant response rating, Redroot pigweed (pigweed; [4]): 0
Plant response rating, Redroot pigweed (pigweed; [5]): 0
Redroot pigweed plant response rating (pigweed; [9]): 0
Redroot pigweed plant response rating (pigweed; [7]): 0
Plant response rating, Rape (rape; [2]): 0
Rape plant response rating (rape; [3]): 0
Plant response rating, Rape (rape; [4]): 0
Plant response rating, Rape (rape; [5]): 0
Rape plant response rating (rape; [9]): 0
Rape plant response rating (rape; [7]): 0
Plant response rating, Soybean (soybean; [2]): 2
Soybean plant response rating (soybean; [3]): 3
Plant response rating, Soybean (soybean; [4]): 0
Plant response rating, Soybean (soybean; [5]): 0
Soybean plant response rating (soybean; [9]): 0
Soybean plant response rating (soybean; [7]): 0
Plant response rating, Sugarbeets (sugar beet; [2]): 0
Sugarbeets plant response rating (sugar beet; [3]): 0
Plant response rating, Sugarbeets (sugar beet; [4]): 0
Plant response rating, Sugarbeets (sugar beet; [5]): 0
Sugarbeets plant response rating (sugar beet; [9]): 0
Sugarbeets plant response rating (sugar beet; [7]): 0
Plant response rating, Velvetleaf (velvetleaf; [2]): 0
Velvetleaf plant response rating (velvetleaf; [3]): 0
Plant response rating, Velvetleaf (velvetleaf; [4]): 0
Plant response rating, Velvetleaf (velvetleaf; [5]): 0
Velvetleaf plant response rating (velvetleaf; [9]): 0
Velvetleaf plant response rating (velvetleaf; [7]): 0
Wheat plant response rating (wheat; [3]): 0
Plant response rating, Wheat (wheat; [4]): 0
Plant response rating, Wheat (wheat; [5]): 0
Wheat plant response rating (wheat; [9]): 0
Wheat plant response rating (wheat; [7]): 0
Wild oats plant response rating (wild oat; [3]): 2
Plant response rating, Wild oats (wild oat; [4]): 0
Plant response rating, Wild oats (wild oat; [5]): 0
Wild oats plant response rating (wild oat; [9]): 2
Wild oats plant response rating (wild oat; [7]): 7
Plant response rating, Nutsedge (purple nutsedge; [2]): 0
Nutsedge plant response rating (purple nutsedge; [3]): 0
Plant response rating, Nutsedge (purple nutsedge; [4]): 0
Plant response rating, Nutsedge (purple nutsedge; [5]): 0
Nutsedge plant response rating (purple nutsedge; [9]): 0
Plant response rating, Rice (0 to 10 scale, 0 is no effect, 10 is complete control) (rice; [10]): 0
Rice plant response rating (0 to 10 scale, 0 is no effect, 10 is complete control) (rice; [11]): 0
Rice plant response rating (rice; [12]): 0
Rice plant response rating (rice; [13]): 0
Plant response rating, S. Flatsedge (0 to 10 scale, 0 is no effect, 10 is complete control) (smallflower flatsedge; [10]): 0
S. Flatsedge plant response rating (0 to 10 scale, 0 is no effect, 10 is complete control) (smallflower flatsedge; [11]): 0
S. Flatsedge plant response rating (smallflower flatsedge; [12]): 0
S. Flatsedge plant response rating (smallflower flatsedge; [13]): 0
Plant response rating, Ducksalad (0 to 10 scale, 0 is no effect, 10 is complete control) (duck salad; [10]): 0
Ducksalad plant response rating (0 to 10 scale, 0 is no effect, 10 is complete control) (duck salad; [11]): 0
Ducksalad plant response rating (duck salad; [12]): 0
Ducksalad plant response rating (duck salad; [13]): 0
Plant response rating, Barnyardgrass (0 to 10 scale, 0 is no effect, 10 is complete control) (bamyardgrass; [10]): 0
Barnyardgrass plant response rating (0 to 10 scale, 0 is no effect, 10 is complete control) (bamyardgrass; [11]): 0
Barnyardgrass plant response rating (bamyardgrass; [12]): 0
Barnyardgrass plant response rating (bamyardgrass; [13]): 0
